Assay results reported in patent US11246873B2, “Directed differentiation of oligodendrocyte precursor cells to a myelinating cell fate” (The Scripps Research Institute, priority 2011, dated 2022).
“Also recorded” adds a separate entry of the source.

How the values were obtained:
[1] = tested on: rat optic nerve derived OPCs; test: High content imaging assay of OPC differentiation (MBP immunostaining, OPERA); format: cell-based; conditions: OPCs in differentiation medium (2 ng/ml PDGF), 6 days
Description: FIG. 1A-C. […] The calculated EC50 values were determined using appropriate Graphpad Prism 5.0 curve fitting software. […] OPCs were plated in 384 well plates at 1000 cells per well in OPC media containing basal PDGF-αα (2 ng/mL) and treated with serial dilutions of compounds. Following six days of compound treatment, cells were fixed and subjected to immunofluorescence analysis using anti-myelin basic protein (MBP) antibody. Image acquisition and quantification of MBP staining was performed using the OPERA imaging system.
FIG. 11A-B. Screen to identify inducers of OPC differentiation. (A) OPCs were maintained as proliferating A2B5-positive cells under basal growth conditions (Neurobasal medium, B27 supplement without Vitamin A, non-essential amino acids, L-Glutamine, 30 ng/ml PDGF). OPCs were plated in basal differentiation media (Neurobasal medium, B27 supplement without Vitamin A, non-essential amino acids, L-Glutamine, 2 ng/ml PDGF), treated with DMSO (<0.1%) or thyroid hormone (1 uM), fixed after 6 days in culture, and stained using antibodies for CNP, O4, or MBP. […] (B) Screen strategy using A2B5 positive OPCs cultured under basal differentiation conditions and treated with compounds for 6 days to identify small molecules that induce the differentiation of OPCs to mature, MBP expressing oligodendrocytes.
FIG. 12A-B. Primary hit confirmation. (A) Dose response assay used to confirm primary screening hits and determine potency (EC50). (EC50) is defined as the concentration that results in a half maximal increase in the percentage of total cells that express MBP as detected by immunostaining. […] Cells were fixed and immunostained using antibodies for MBP. Error bars represent standard deviations from 3 replicate experiments. […]
FIG. 21. […] OPCs were plated in differentiation medium (2 ng/ml PDGF) and treated with various concentrations of compounds for 6 days. Cells were fixed and immunostained for MBP.
A large-scale small molecule screen was conducted to identify small molecules that promote the differentiation of oligodendrocyte precursor cells (OPCs) to a mature myelinating fate. High content imaging was used to detect in-well differentiation of rat optic nerve derived OPCs. Rat optic nerve derived OPCs were expanded en masse in OPC media containing 30 ng/mL PDGFαα. To screen for small molecule inducers of OPC differentiation, OPCs (cultured for fewer than 15 passages) were plated in poly-D-lysine coated 384 well culture plates in OPC Media containing 2 ng/mL PDGFαα and immediately treated with compounds at a final concentration of 6 μM (0.6% DMSO). Compound treated cells were incubated at 37° C., 5% CO2 for 6 days. At the end of 6 days, cells were fixed in 4% paraformaldehyde and subjected to immunofluorescence analysis. Anti-Myelin Basic Protein monoclonal antibody (a.a. 129-138, clone 1 monoclonal antibody, Millipore) (1:1000 dilution) in blocking buffere solution (3% BSA, 0.3% Triton X-100 in PBS) was added to fixed and washed cells and incubated at 4° C. overnight.

[2] = tested on: OPCs; test: qRT-PCR of MBP and MOG expression in compound treated OPCs; format: cell-based, rat; conditions: EC90 concentrations, 6 days
Excerpt: FIG. 2A-C. […] (A) Western blot analysis of OPCs treated with compounds at EC90 concentrations for 6 days. Total protein was isolated from cell pellets and probed for myelin basic protein (MBP) and myelin oligodendrocyte glycoprotein (MOG) using specific antibodies. (B-C) Quantitative RT-PCR (qRT-PCR) analysis of OPCs treated with compounds at EC90 concentrations for 6 days. Total RNA was isolated from cell pellets and reverse transcribed. MBP and MOG expression was quantified using specific probes and Taqman-based qRT-PCR. Expression was normalized to the internal controls β-actin and GAPDH. Fold change in gene expression over DMSO treated control cells is plotted for MBP (B) and MOG (C).

[3] = tested on: OPCs; test: Immunofluorescence analysis of mature oligodendrocyte markers (MBP, MOG, CNP, GalC, O1, O4); format: cell-based, rat; conditions: OPCs treated 6 days
Excerpt: FIG. 3. Immunofluorescence analysis of compound treated OPCs using mature oligodendrocyte specific markers. Immunofluorescence staining using specific antibodies for MBP, MOG, and 2′,3′-cyclic nucleotide 3′ phosphodiesterase (CNP). Nuclei were identified using DAPI.
FIG. 4. Immunofluorescence analysis of compound treated OPCs using mature oligodendrocyte specific markers. Immunofluorescence staining using specific antibodies for galactocereberoside (GalC), oligodendrocyte marker O1 (O1) and oligodendrocyte marker O4 (O4). Nuclei were identified using DAPI.
FIG. 14. Compound treatment induces the differentiation of OPCs to mature oligodendrocytes. […] Cells were fixed and immunostained for MBP, MOG, CNP, GalC, O1, or O4.
Immunofluorescence was also used to confirm that the hits were able to induce oligodendrocyte maturation.

[4] = tested on: muscarinic receptor; test: Carbachol co-treatment in compound induced OPC differentiation (MBP staining); format: cell-based, rat; conditions: compounds at EC90 (benztropine 2.3 uM), serial dilutions of carbachol, 6 days
Description: Following 6 days of treatment, cells were fixed and stained for MBP. Plates were imaged using the OPERA high content screening system and MBP staining was quantified as described. […] OPCs were plated in 384-well plates at 5000 cells per well in media containing basal PDGF-αα. Cells were equilibrated with Ca^2+ sensitive Fluo-3AM® dye in HBSS for 30 min. […] Ca^2+ influx was immediately measured using the FLIPR TETRA® system.
OPCs express mAChRs, predominantly subtypes M1, M3, and M5 (F. Ragheb et al., J Neurochem, 77, 1396 (2001)). […] Activation of M1 and M3 mAChRs is coupled to downstream signal transduction events through phospholipase C, which results in increased intracellular calcium concentrations (F. Ragheb et al., J Neurochem, 77, 1396 (2001)) (FIG. 23C). M2 and M4 mAChR activation inhibits adenylatecyclase, leading to decreased intracellular cAMP levels (C. C. Felder, FASEB J, 9, 619 (1995); M. Lopez-Ilasaca et al., Science, 275, 394 (1997)). […] Acetylcholine is a known regulator of OPC proliferation and, as such, muscarinic receptor subtypes represent a reasonable class of therapeutic targets for the modulation of OPC proliferation and differentiation (F. De Angelis et al., Dev Neurobiol, (2011)).

Row | Compound | induction of OPC differentiation (MBP staining) [1] | induction of MBP expression (qRT-PCR) over DMSO [2] | induction of MOG expression (qRT-PCR) over DMSO [2] | markers of mature myelinating oligodendrocytes (MBP, MOG, CNP, GalC, O1, O4) by immunofluorescence [3] | effect of carbachol on compound induced OPC differentiation [4] | effect of carbachol on compound induced OPC differentiation ([4]; listed as benzatropine)
1 | CN1[C@@H]2CC[C@H]1C[C@@H](OC(c1ccccc1)c1ccccc1)C2 [benztropine] | promote OPC differentiation; also recorded: dose dependent activity | two-fold | two-fold | confirmed the presence of multiple markers of mature myelinating oligodendrocytes; also recorded: expression of mature oligodendrocyte markers | inhibited; also recorded: Potent inhibition; also recorded: antagonizes | dose dependent inhibition
2 | CN1CCN(CCCN2c3ccccc3Sc3ccc(C(F)(F)F)cc32)CC1 [trifluoperazine] | promote OPC differentiation | two-fold | two-fold | confirmed the presence of multiple markers of mature myelinating oligodendrocytes | did not inhibit; also recorded: no effect | –
